Data as given in ChEMBL document CHEMBL5154769, “Discovery of the First-in-Class Agonist-Based SOS1 PROTACs Effective in Human Cancer Cells Harboring Various KRAS Mutations” (J Med Chem, 2022).
pIC50, pKd: −log10 of the molar value. Active and inactive are the calls of the source. The calls are words filed in the database; no cut-off is given here.

What was measured:
[1] = molecular target: von Hippel-Lindau disease tumor suppressor/Son of sevenless homolog 1 (Homo sapiens, UniProt Q07889+P40337, G12D); experiment: Protac activity at VHL/SOS1 in human ASPC1 cells harboring KRAS G12D mutant assessed as SOS1 protein degradation incubated for 24 hr by Western blot analysis; assay type: cell-based
[2] = species: Homo sapiens; experiment: Binding affinity to SOS1/VCB E3 ligase (unknown origin) assessed as ternary complex formation by measuring hook effect incubated for 1 hr by HTRF assay
[3] = molecular target: T1, von Hippel-Lindau disease tumor suppressor/Son of sevenless homolog 2 (Homo sapiens) (UniProt P40337+Q07890); experiment: Protac activity at VHL/SOS2 in human NCI-H358 cells assessed as SOS2 protein degradation at 9.8 to 2500 nM incubated for 24 hr by Western blot analysis; assay type: cell-based; settings: dose 9.8-2500 nM, DDE = dose-dependent effect
T1 sequence (P40337 whole entry, looked up): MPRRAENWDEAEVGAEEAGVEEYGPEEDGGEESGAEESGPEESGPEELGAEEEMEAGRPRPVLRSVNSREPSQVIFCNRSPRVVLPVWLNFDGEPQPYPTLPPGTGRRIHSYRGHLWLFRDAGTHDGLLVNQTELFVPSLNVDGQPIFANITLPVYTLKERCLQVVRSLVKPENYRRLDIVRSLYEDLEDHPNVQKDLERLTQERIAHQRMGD
T1 sequence (Q07890 whole entry, looked up): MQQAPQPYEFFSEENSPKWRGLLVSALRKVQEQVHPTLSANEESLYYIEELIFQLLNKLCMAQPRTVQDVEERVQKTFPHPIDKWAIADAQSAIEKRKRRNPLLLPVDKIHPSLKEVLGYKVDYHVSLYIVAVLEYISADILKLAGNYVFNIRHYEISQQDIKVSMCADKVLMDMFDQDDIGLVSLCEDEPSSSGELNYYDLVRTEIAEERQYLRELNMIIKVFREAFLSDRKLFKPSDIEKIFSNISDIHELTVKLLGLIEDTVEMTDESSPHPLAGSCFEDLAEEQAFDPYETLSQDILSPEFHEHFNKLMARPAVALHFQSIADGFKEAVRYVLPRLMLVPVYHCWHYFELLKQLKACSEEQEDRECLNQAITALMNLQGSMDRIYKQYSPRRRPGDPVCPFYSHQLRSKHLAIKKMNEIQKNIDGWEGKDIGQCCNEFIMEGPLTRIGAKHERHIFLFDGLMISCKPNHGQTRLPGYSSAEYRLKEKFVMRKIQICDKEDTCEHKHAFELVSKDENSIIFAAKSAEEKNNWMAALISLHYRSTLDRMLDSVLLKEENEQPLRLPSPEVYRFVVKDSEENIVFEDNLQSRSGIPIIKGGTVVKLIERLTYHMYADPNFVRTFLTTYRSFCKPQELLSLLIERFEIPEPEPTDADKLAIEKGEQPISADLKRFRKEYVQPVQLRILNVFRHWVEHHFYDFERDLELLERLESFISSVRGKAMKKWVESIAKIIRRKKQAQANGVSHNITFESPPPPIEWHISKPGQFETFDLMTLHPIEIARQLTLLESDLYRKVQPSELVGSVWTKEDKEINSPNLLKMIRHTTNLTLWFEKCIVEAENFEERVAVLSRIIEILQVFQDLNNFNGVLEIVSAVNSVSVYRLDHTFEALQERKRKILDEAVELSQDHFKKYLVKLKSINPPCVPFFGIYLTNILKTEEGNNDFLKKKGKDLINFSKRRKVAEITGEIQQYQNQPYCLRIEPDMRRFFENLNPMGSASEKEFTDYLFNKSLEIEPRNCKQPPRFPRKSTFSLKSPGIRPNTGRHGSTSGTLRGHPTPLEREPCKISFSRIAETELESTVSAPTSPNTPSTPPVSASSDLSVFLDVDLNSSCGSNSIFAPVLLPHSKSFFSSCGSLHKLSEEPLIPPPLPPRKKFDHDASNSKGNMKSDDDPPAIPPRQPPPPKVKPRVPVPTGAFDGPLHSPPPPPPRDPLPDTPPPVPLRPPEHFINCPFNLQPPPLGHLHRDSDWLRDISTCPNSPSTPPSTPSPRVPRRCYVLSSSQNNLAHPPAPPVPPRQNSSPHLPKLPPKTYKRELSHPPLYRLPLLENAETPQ

[4] = tested on: NCI-H358; experiment: Effect of compound on human NCI-H358 cells assessed as decrease in phophorylated ERK level at 1 uM and measured after 6 to 24 hr by Western blot analysis; assay type: functional, cell-based; settings: time 6-24 hrs
[5] = molecular target: T2, von Hippel-Lindau disease tumor suppressor/Son of sevenless homolog 1 (Homo sapiens, UniProt Q07889+P40337); experiment: Protac activity at VHL/SOS1 in human NCI-H358 cells assessed as SOS1 protein degradation at 1 uM and measured after 4 to 24 hr by western blot analysis; assay type: cell-based; settings: time 4-24 hrs
Target sequence in this assay (P40337 whole entry, looked up): as the sequence (P40337 whole entry, looked up) above
Target sequence in this assay (Q07889 whole entry, looked up): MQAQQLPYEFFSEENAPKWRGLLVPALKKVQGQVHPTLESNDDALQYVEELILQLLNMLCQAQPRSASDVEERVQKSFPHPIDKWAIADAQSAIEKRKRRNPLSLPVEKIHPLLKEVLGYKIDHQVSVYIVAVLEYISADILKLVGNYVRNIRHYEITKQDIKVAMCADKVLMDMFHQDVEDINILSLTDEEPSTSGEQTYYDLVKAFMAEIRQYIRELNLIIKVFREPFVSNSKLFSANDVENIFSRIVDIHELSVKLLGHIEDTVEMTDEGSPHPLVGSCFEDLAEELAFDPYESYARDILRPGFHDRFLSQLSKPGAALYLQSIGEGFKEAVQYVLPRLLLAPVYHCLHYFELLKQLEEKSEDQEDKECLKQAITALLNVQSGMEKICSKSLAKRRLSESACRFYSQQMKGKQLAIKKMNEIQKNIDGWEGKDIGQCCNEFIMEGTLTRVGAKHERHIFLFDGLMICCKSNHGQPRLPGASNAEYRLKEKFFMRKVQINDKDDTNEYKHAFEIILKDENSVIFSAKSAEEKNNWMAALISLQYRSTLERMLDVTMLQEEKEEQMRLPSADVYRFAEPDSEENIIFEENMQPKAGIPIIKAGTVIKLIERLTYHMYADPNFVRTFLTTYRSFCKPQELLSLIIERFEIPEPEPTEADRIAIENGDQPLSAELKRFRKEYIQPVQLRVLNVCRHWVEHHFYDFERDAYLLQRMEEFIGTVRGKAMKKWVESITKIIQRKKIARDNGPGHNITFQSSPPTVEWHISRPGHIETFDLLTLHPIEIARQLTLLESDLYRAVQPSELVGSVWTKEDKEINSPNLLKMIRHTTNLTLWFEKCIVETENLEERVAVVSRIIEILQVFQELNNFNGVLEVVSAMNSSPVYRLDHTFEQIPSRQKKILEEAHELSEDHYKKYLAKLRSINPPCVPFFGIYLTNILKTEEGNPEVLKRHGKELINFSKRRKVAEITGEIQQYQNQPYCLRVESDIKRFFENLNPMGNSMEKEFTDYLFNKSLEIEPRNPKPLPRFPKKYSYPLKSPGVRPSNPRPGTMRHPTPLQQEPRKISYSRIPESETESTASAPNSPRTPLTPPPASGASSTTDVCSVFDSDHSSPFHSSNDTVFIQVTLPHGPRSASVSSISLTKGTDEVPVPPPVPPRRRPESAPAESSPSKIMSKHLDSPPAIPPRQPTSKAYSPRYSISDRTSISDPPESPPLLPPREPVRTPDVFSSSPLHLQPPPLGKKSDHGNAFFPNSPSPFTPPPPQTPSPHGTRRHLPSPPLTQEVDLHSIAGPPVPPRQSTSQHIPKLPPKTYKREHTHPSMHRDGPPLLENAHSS

[6] = molecular target: T3, von Hippel-Lindau disease tumor suppressor/Son of sevenless homolog 1 (Homo sapiens, UniProt Q07889+P40337, G12C); experiment: Protac activity at VHL/SOS1 in human NCI-H358 cells harboring KRAS G12C mutant assessed as SOS1 protein degradation incubated for 24 hr by Western blot analysis; assay type: cell-based
T3 sequence (P40337 whole entry, looked up, stated change not applied): as the sequence (P40337 whole entry, looked up) above
T3 sequence (Q07889 whole entry, looked up, stated change not applied): as the sequence (Q07889 whole entry, looked up) above

[7] = tested on: NCI-H358; experiment: Antiproliferative activity against human NCI-H358 cells harboring KRAS G12C mutant assessed as growth inhibition incubated for 7 days by CellTiter-Glo 3D cell viability assay; assay type: functional, cell-based; settings: NCI-H358, 168 h
[8] = Tmax in BALB/c mouse at 10 mg/kg, ip measured after 24 hrs by LC-MS/MS analysis; assay type: ADME, organism-based; settings: in vivo
[9] = Cmax in BALB/c mouse at 10 mg/kg, ip measured after 24 hrs by LC-MS/MS analysis; assay type: ADME, organism-based; parameters: dose 10 mg/kg, time 24 hrs, route ip; settings: in vivo
[10] = Toxicity in BALB/c nude mouse xenografted with human NCI-H358 cells assessed as effect on body weight at 20 to 50 mg/kg, IT twice weekly for 5 weeks; assay type: organism-based; settings: in vivo, other, 840 h, dose 20-50 mg/kg
[11] = tested on: NCI-H358; experiment: Antitumor activity against human NCI-H358 cells xenografted in BALB/c nude mouse assessed as tumor growth inhibition at 10 mg/kg/day, ip incubated for 21 days; assay type: functional; settings: NCI-H358, 504 h, time 21 day, read-out: TGI
[12] = tested on: ASPC1; experiment: Antiproliferative activity against human ASPC1 cells harboring KRAS G12D mutant assessed as cell growth inhibition incubated for 7 days by CellTiter-Glo 3D cell viability assay; assay type: functional, cell-based; settings: ASPC1, 168 h
[13] = molecular target: T2, von Hippel-Lindau disease tumor suppressor/Son of sevenless homolog 1; experiment: Protac activity at VHL/SOS1 in human A549 cells harboring KRAS […] mutant assessed as SOS1 protein degradation incubated for 24 hr by Western blot analysis; assay type: cell-based
[14] = AUClast in BALB/c mouse at 10 mg/kg, ip measured after 24 hrs by LC-MS/MS analysis; assay type: ADME, organism-based; parameters: dose 10 mg/kg, time 24 hrs, route ip; settings: in vivo
[15] = Toxicity in BALB/c nude mouse xenografted with human NCI-H358 cells assessed as effect on body weight at 10 to 20 mg/kg/day, ip for 21 days and measured every 3 day; assay type: organism-based; settings: in vivo, 504 h, dose 10-20 mg/kg/day, time 21 day
[16] = species: Homo sapiens; experiment: Co-operativity factor, Ratio of Kd for Binding affinity to VCB E3 ligase (unknown origin) assessed as binary equilibrium dissociation constant to Kd for binding affinity to SOS1/VCB E3 ligase (unknown origin) assessed as ternary dissociation constant
[17] = tested on: NCI-H358; experiment: Effect of compound on human NCI-H358 cells stimulated with EGF assessed as decrease in KRAS-GTP level incubated for 24 hr by RAS-G-LISA assay; assay type: functional, cell-based
[18] = molecular target: T1, von Hippel-Lindau disease tumor suppressor/Son of sevenless homolog 2 (Homo sapiens); experiment: Protac activity at VHL/SOS2 in human NCI-H358 cells assessed as SOS2 mRNA level at 1 uM incubated for 24 to 72 hr by qRT PCR analysis; assay type: cell-based; settings: time 24-72 hrs
[19] = molecular target: T1, von Hippel-Lindau disease tumor suppressor/Son of sevenless homolog 2 (Homo sapiens); experiment: Protac activity at VHL/SOS2 in human ASPC1 cells assessed as SOS2 mRNA level at 1 uM incubated for 24 to 72 hr by qRT PCR analysis; assay type: cell-based; settings: time 24-72 hrs
[20] = Binding affinity to SOS1/VCB E3 ligase (unknown origin) assessed as ternary dissociation constant by surface plasmon resonance analysis; parameters: species or system Homo sapiens
[21] = molecular target: T3, von Hippel-Lindau disease tumor suppressor/Son of sevenless homolog 1; experiment: Protac activity at VHL/SOS1 in human MIA PaCa-2 cells harboring KRAS G12C mutant assessed as SOS1 protein degradation incubated for 24 hr by Western blot analysis; assay type: cell-based
[22] = Acute toxicity in BALB/c mouse assessed as change in body weight at 20 mg/kg, ip once daily for 7 days; assay type: organism-based; settings: in vivo, 168 h, time 7 day
[23] = molecular target: von Hippel-Lindau disease tumor suppressor/Son of sevenless homolog 1 (Homo sapiens, UniProt Q07889+P40337, G12R); experiment: Protac activity at VHL/SOS1 in human CAL-62 cells harboring KRAS G12R mutant assessed as SOS1 protein degradation incubated for 24 hr by Western blot analysis; assay type: cell-based
[24] = molecular target: T2, von Hippel-Lindau disease tumor suppressor/Son of sevenless homolog 1; experiment: Protac activity at VHL/SOS1 in human NCI-H358 cells assessed as SOS1 protein degradation incubated for 24 hr by Western blot analysis; assay type: cell-based
[25] = molecular target: T2, von Hippel-Lindau disease tumor suppressor/Son of sevenless homolog 1; experiment: Protac activity at VHL/SOS1 in human ASPC1 cells assessed as SOS1 protein degradation at 1 uM incubated measured after 16 hr by western blot analysis; assay type: cell-based
Target sequence in this assay (P40337 whole entry, looked up): as the sequence (P40337 whole entry, looked up) above
Target sequence in this assay (Q07889 whole entry, looked up): as the sequence (Q07889 whole entry, looked up) above

[26] = molecular target: Von Hippel-Lindau disease tumor suppressor/Elongin B/Elongin C (Homo sapiens, UniProt P40337); experiment: Binding affinity to VCB E3 ligase (unknown origin) assessed as binary equilibrium dissociation constant by surface plasmon resonance analysis; assay type: protein-complex assay
Sequence of Von Hippel-Lindau disease tumor suppressor/Elongin B/Elongin C (P40337 whole entry, looked up): as the sequence (P40337 whole entry, looked up) above

[27] = tested on: MIA PaCa-2; experiment: Antiproliferative activity against human MIA PaCa-2 cells harboring KRAS G12C mutant assessed as cell growth inhibition incubated for 7 days by CellTiter-Glo 3D cell viability assay; assay type: functional, cell-based; settings: MIA PaCa-2, 168 h
[28] = tested on: A549; experiment: Antiproliferative activity against human A549 cells harboring KRAS G12S mutant assessed as cell growth inhibition incubated for 7 days by CellTiter-Glo 3D cell viability assay; assay type: functional, cell-based; settings: A549, 168 h
[29] = tested on: SW-620; experiment: Antiproliferative activity against human SW620 cells harboring KRAS G12V mutant assessed as cell growth inhibition incubated for 7 days by CellTiter-Glo 3D cell viability assay; assay type: functional, cell-based; settings: SW-620, 168 h
[30] = Observed MRT (infinity) in BALB/c mouse at 10 mg/kg, ip measured after 24 hrs by LC-MS/MS analysis; assay type: ADME, organism-based; settings: in vivo
[31] = tested on: NCI-H358; experiment: Antitumor activity against human NCI-H358 cells xenografted in BALB/c nude mouse assessed as tumor growth inhibition at 20 mg/kg/day, ip incubated for 21 days; assay type: functional; settings: NCI-H358, 504 h, time 21 day, read-out: TGI

In the case of `Cc1cc(Cn2c(N3CC4(CNC4)C3)nc3c(N4CCN(CCCCCCCCC(=O)N[C@H](C(=O)N5C[C@H](O)C[C@H]5C(=O)N[C@@H](C)c5ccc(-c6scnc6C)cc5)C(C)(C)C)CC4)cc(Cl)cc32)cc(C)c1F`, the DC50 [1] was 119 nM, the Activity [2] was “Active” and the Activity [3] was “Dde”. The Activity [4] was “Active”, the Activity [5] was “Active” and the DC50 [6] was 98 nM. For the same compound, the pIC50 [7] was 6.28, the Tmax [8] was 0.25 h and the Cmax [9] was 1220 ng/mL. The Activity [10] was “Non-Toxic”, the inhibition in vivo at 10 mg/kg/day [11] was 72.5% and the pIC50 [12] was 6.51. The DC50 [13] was 22 nM, the AUC(0-t) at 24 h [14] was 3900 ng·h/mL and the Activity [15] was “Non-Toxic”. The Ratio [16] was 15.1, the Activity [17] was “Active” and the Activity [18] was “Active”. For the same compound, the Activity [19] was “Active”, the pKd [20] was 8.43 and the DC50 [21] was 255 nM. For the same compound, the Activity [22] was “Non-Toxic”, the DC50 [23] was 126 nM and the DC50 [24] was 98.4 nM. The Activity [25] was “Active”, the pKd [26] was 7.25 and the pIC50 [27] was 6.66. The pIC50 [28] was 6.63, the pIC50 [29] was 6.70 and the MRT inf [30] was 10.2 h. For the same compound, the inhibition in vivo at 20 mg/kg/day [31] was 86.1%.
